This note sets out measurements from patent publication US20030119846A1, “Compounds with 5-ht activity useful for controlling visual field loss” (priority 2000, published 2003).

The target of series [1] is T1, human cloned 5-HT1A receptors (Homo sapiens, UniProt P08908).
T1 construct: purchased NEN (manufactured by Biosignal, Inc., Montreal, Canada); host or cells: CHO cells
T1 sequence (P08908 1-422): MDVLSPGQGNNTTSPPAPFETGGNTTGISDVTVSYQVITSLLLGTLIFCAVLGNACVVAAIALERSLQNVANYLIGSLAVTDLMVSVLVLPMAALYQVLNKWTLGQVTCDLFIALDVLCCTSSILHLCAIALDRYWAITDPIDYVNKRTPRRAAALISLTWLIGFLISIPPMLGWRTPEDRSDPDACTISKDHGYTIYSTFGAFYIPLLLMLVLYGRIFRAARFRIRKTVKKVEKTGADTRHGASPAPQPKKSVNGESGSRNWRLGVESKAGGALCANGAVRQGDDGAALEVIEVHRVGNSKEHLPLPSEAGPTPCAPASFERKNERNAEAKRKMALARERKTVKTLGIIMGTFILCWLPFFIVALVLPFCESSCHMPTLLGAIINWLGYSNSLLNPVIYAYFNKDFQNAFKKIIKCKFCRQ
The experiment in a line: 5-HT1A Receptor Binding Assay ([3H]8-OH-DPAT, CHO cell membranes). The following applies: 0.25 nM [3H]8-OH-DPAT, 27° C., 1 h; read-out: Receptor Binding (IC50 nM, SEM). The protocol:
5-HT1A binding studies were performed with human cloned receptors expressed in Chinese hamster ovary (CHO) cells using (^3H)8-OH DPAT as the ligand. Membranes from Chinese hamster ovary cells (CHO) expressing cloned 5-HT1A receptors (manufactured for NEN by Biosignal, Inc., Montreal, Canada) were homogenized in approximately 40 volumes of 50 mM Tris pH 7.4 for 5 sec. Drug dilutions were made using a Beckman Biomek 2000 robot (Beckman Instruments, Fullerton, Calif.). Incubations were conducted with membrane prep, test compounds, and 0.25 nM [^3H]8-OH-DPAT (NEN, Boston, Mass.) in the same buffer at 27° C. for 1 h. Assays were terminated by rapid vacuum filtration over Whatman GF/B glass fiber filters pre-soaked in 0.3% polyethyleneimine. Bound radioactivity was measured using liquid scintillation spectrometry. Data were analyzed using non-linear curve fitting programs (Sharif et al., J. Pharmac. Pharmacol. 51:685-694, 1999).
Ligand binding studies can also be run using membrane preparations from calf and rat brain (local source) and human cortex membranes. Specific brain regions were dissected out, homogenized in 10 volumes of 0.32 M sucrose and centrifuged for 10 min at 700×g. […] Ki values were calculated using the Cheng-Prusoff equation (De Vry et al., J. Pharm. Exper. Ther. 284:1082-1094, 1998.)

The subject of series [2] is retina (photo-oxidative injury). Nature of the series: Neuroprotective effects in the acute blue-light damage model in the rat (ERG). The class given is in vivo, Sprague Dawley rats. The following applies: for A-wave Amplitude Mean / B-wave Amplitude Mean: ERG after 5-day recovery. The protocol: Male Sprague Dawley rats were randomly assigned to vehicle treatment (N=15) or drug treatment (0.5 mg/kg [N=5] or 1 mg/kg [N=15]) experimental groups. Xaliproden hydrochloride or vehicle was administered by intraperitonal (IP) injection at 48, 24, and 0 hours prior to light exposure. Photo-oxidative injury to the retina was induced in dark-adapted rats (24 hours) by a 6-hour blue-light exposure (220 fc). Control rats (N=11) were housed in their home cage under normal cyclic light exposure. Rats were single housed in clear polycarbonate cages during this light exposure.
The electroretinogram (ERG) was recorded after a five day recovery period from dark-adapted anesthetized rats (Ketamine-HCl, 75 mg/Kg; Xylazine, 6 mg/Kg). The eye's electrical response to a flash of light was elicited by viewing a ganzfeld. ERGs to a series of light flashes increasing in intensity were digitized to analyze temporal characteristics of the waveform and determine the response voltage-log intensity (VlogI) relationship. Changes in the ERG a-wave are associated with photoreceptor and retinal pigment epithelium damage while damage to the inner retina is reflected in changes in the ERG b-wave.

A further series has as its target T2, 5-HT1A receptors (UniProt P08908).
T2 sequence (P08908 1-422): T1 sequence (P08908 1-422)
Nature of the series: 5-HT1A Functional Assay (cAMP inhibition, forskolin-stimulated adenylate cyclase). The following applies: read-out: cAMP Inhibition (EC50).

[3] abbreviates: 0.5 mg/kg IP at 48, 24, 0 h before 6-hour blue-light exposure.
Where [4] appears, read: 1.0 mg/kg IP at 48, 24, 0 h before 6-hour blue-light exposure.

Each structure is given as a SMILES string. Where a name gives a salt, the structure may show the parent alone.

As to `FC(F)(F)c1cccc(C2=CCN(CCc3ccc4ccccc4c3)CC2)c1` [SR-57746A, xaliproden hydrochloride], in series [1], the IC50 is 2.5 nM. In addition, in series [2] (setting [3]), the “A-wave Amplitude Mean” value is listed as 550.5 μV and the “B-wave Amplitude Mean” value is recorded as 1361.1 μV. Besides, in series [2] (0.5 mg/kg, light-exposed rats), the “Maximum a- and b-wave response amplitudes, % of controls” value is 82%. In series [2] (setting [4]), the “A-wave Amplitude Mean” value amounted to 460.8 μV and the “B-wave Amplitude Mean” value is 1169.4 μV. Also, the “Maximum a- and b-wave response amplitudes, % of normal” value in series [2] (1 mg/kg, light-exposed rats) is listed as 70%. Moreover, the “Protection of retinal function” value in series [2] (0.5 and 1.0 mg/kg, light-exposed rats) is “Significant protection of retinal function”. Further, the EC50 on 5-HT1A receptors is 3.7 nM.
